Measurements reported in BigSolDB 2.1.

CC1=NN(c2ccccc2)C(=O)C1
solubility (mole fraction)
Conditions | 283.15 K | 288.15 K | 293.15 K | 298.15 K | 303.15 K | 308.15 K | 313.15 K | 318.15 K | 323.15 K | 328.15 K
in 1,2-dichloroethane | 0.0262 | 0.0304 | 0.0358 | 0.0417 | 0.0496 | 0.058 | 0.0676 | 0.0767 | 0.089 | –
in 2-butanone | 0.02 | 0.024 | 0.0313 | 0.0372 | 0.0437 | 0.0557 | 0.0678 | 0.081 | 0.121 | –
in MIBK | 0.0107 | 0.0138 | 0.0198 | 0.0243 | 0.0311 | 0.0365 | 0.0414 | 0.0495 | 0.0609 | –
in dimethyl carbonate | 0.0118 | 0.0138 | 0.0166 | 0.0201 | 0.0257 | 0.0316 | 0.0384 | 0.0458 | 0.0573 | –
in ethyl lactate | 0.0293 | 0.0319 | 0.0352 | 0.0392 | 0.0424 | 0.0486 | 0.0531 | 0.0594 | 0.0735 | –
in isobutyl acetate | – | 0.0109 | 0.0123 | 0.0142 | 0.0162 | 0.0192 | 0.0229 | 0.0268 | 0.0309 | 0.0367
in isopentanol | 0.0191 | 0.021 | 0.023 | 0.0261 | 0.0282 | 0.0312 | 0.0353 | 0.0403 | 0.0466 | –
in isopropyl acetate | 0.00972 | 0.0117 | 0.0141 | 0.0162 | 0.0187 | 0.0223 | 0.0265 | 0.032 | 0.036 | –
in methyl acetate | 0.0161 | 0.0182 | 0.0201 | 0.0237 | 0.0266 | 0.0299 | 0.0349 | 0.0422 | 0.0477 | –
in n-butyl acetate | 0.0124 | 0.0142 | 0.0164 | 0.0195 | 0.0227 | 0.0265 | 0.0305 | 0.037 | 0.0423 | –
in n-hexane | 0.000173 | 0.000226 | 0.000394 | 0.00052 | 0.000662 | 0.000963 | 0.00136 | 0.00172 | 0.00211 | –
in n-propyl acetate | 0.0142 | 0.0169 | 0.0197 | 0.0228 | 0.0276 | 0.0318 | 0.0384 | 0.0451 | 0.0551 | –
